GI50 data for 1 compound are collected here from patent US20240277705A1, “DOSAGE REGIMENS FOR ECUBECTEDIN” (PHARMA MAR S.A., priority 2021, published 2024).

By GI50 is commonly meant the concentration giving 50% growth inhibition.

Experiment [1] deals with RXF 393 (renal carcinoma). In words: MTT cell viability assay, RXF 393. It is filed as cell-based. Particulars: Homo sapiens, RXF 393, 72 h; read-out: GI50, M (geometric mean, N = 3). An excerpt: Cell lines and cell culture: The following human cancer cell lines have been used in this example (the collection code and the tissue of origin are shown in brackets): • RXF 393 (NCI) (renal carcinoma) • Caki-1 (ATCC HTB-46) (kidney clear cell carcinoma)
Cell lines were obtained from the American Type Culture Collection (ATCC) or the National Cancer Institute (NCI). Cells were maintained in the appropriate culture medium, namely: • RPMI for RXF 393 • McCoy's 5A for Caki-1
All media were supplemented with 10% FBS, 2 mM L-Glutamine and 100 units/mL of penicillin-streptomycin.
Cell viability assay: To assess the antiproliferative activity of the compounds a colorimetric assay based on 3-(4,5-Dimethylthiazol-2-yl)-2,5-diphenyltetrazolium bromide (MTT) reduction was used. […] Culture medium was then removed and 100 μL of neat DMSO added to each well to dissolve the formazan product into a coloured solution whose absorbance at 540 nm was finally measured in a PolarStar Omega microplate multilabel reader (BMG Labtech, Ortenberg, Germany). […]
GI50 is finally used as reference value. […] To define a significant (ca. 70%) confidence interval for the geometric mean, its value must be multiplied and divided by the corresponding geometric standard deviation (GSD) which was also calculated. […]
Background: Tetrazolium assays rely on reduction of a dye to a coloured formazan, in cell work by metabolically active cells.

Experiment [2] deals with WM-266-4 (Melanoma). In words: MTT cell viability assay, WM-266-4. It is filed as cell-based. The conditions noted are these: Homo sapiens. The procedure:
Cell viability assay: To assess the antiproliferative activity of the compounds a colorimetric assay based on 3-(4,5-Dimethylthiazol-2-yl)-2,5-diphenyltetrazolium bromide (MTT) reduction was used. […] An appropriate number of cells, to reach a final cell density in the assay ranging from 5,000 to 15,000 cells per well depending on the cell line, were seeded in 96-well plates and allowed to stand in culture medium for 24 h at 37° C. under 5% CO2 and 98% humidity. Then, compounds or DMSO in culture medium were added to reach a final volume of […] and the intended compound concentration in a range covering 10 serial 2/5 dilutions starting from […] (10 μg/mL for doxorubicin) in 1% (v/v) DMSO. At this point a set of “time zero control plates” treated with 1% (v/v) DMSO were processed with MTT as described below. The rest of the plates were incubated during 72 h under the aforementioned environmental conditions. […] Culture medium was then removed and 100 μL of neat DMSO added to each well to dissolve the formazan product into a coloured solution whose absorbance at 540 nm was finally measured in a PolarStar Omega microplate multilabel reader (BMG Labtech, Ortenberg, Germany). […]
GI50 values were determined as described in Example 1, but using the following human cancer cell line: • WM-266-4 (ATCC@ CRL-1676) (Melanoma) […]

The structures appear in SMILES notation.

Turning to `COc1c(C)cc2c(c1O)[C@@H]1[C@@H]3[C@@H]4SC[C@]5(N[C@H](CO)Cc6c5[nH]c5ccccc65)C(=O)OC[C@@H](c5c6c(c(C)c(OC(C)=O)c54)OCO6)N3[C@@H](O)[C@H](C2)N1C` [PM14, ECUBECTEDIN], the GI50 in experiment [1] was found to be 0.621 nM; in experiment [2], 1.94 nM.
